Experimental data published in patent publication US20150216898A1, “COMPOSITION FOR TREATING PSORIASIS” (PSORIASIS+CREAMS SWEDEN AB, priority 2012, published 2015).

Tested on: subjects suffering from psoriasis
Assay: Previous treatment(s) of the subjects (anamnesis)
Format: in vivo, human
Conditions: Subject 4; previous treatment supplemented with moisturisers and emollients; responded well at first, more frequent relapses later
From the text: The subject had been diagnosed with psoriasis for nearly 25 years ago and had previously used combinations of local corticosteroids and emollient and moisturizing creams. Further, the subject had also tried photo therapy as well as a topical tar based product (Skillingarydsalvan Original). […] Further, the subject experienced side-effects (e g skin damage, such as skin thinning, changes in pigmentation, easy bruising, stretch marks, redness and dilated surface blood vessels) typically seen with treatment with corticosteroids.
Previous treatment(s): The subject had used corticosteroids such as mometasone furoate, prednicarbate and most recently calcitriol, always supplementing the treatment with moisturisers and emollients.

Row | Compound | effect of previous treatment over time
1 | C=C1/C(=C\C=C2/CCC[C@]3(C)[C@@H]([C@H](C)CCCC(C)(C)O)CC[C@@H]23)C[C@@H](O)C[C@@H]1O [calcitriol] | no longer as effective
2 | C[C@@H]1C[C@H]2[C@@H]3CCC4=CC(=O)C=C[C@]4(C)[C@@]3(Cl)[C@@H](O)C[C@]2(C)[C@@]1(OC(=O)c1ccco1)C(=O)CCl [mometasone furoate] | no longer as effective
3 | CCOC(=O)O[C@]1(C(=O)COC(=O)CC)CC[C@H]2[C@@H]3CCC4=CC(=O)C=C[C@]4(C)[C@H]3[C@@H](O)C[C@@]21C [prednicarbate] | no longer as effective
